Residues, ends and D or L forms follow the SMILES beside them.
Tests used:
recombinant human Ang1 = molecular target: T1, recombinant human Ang1 (Homo sapiens, UniProt Q15389); assay: BIACORE (SPR) binding of peptides to immobilized recombinant Ang1; details: CM5 chip, 10-50 μM peptide
T1 construct: purchased R&D Systems 923-AN-025/CF
T1 sequence (Q15389 16-498): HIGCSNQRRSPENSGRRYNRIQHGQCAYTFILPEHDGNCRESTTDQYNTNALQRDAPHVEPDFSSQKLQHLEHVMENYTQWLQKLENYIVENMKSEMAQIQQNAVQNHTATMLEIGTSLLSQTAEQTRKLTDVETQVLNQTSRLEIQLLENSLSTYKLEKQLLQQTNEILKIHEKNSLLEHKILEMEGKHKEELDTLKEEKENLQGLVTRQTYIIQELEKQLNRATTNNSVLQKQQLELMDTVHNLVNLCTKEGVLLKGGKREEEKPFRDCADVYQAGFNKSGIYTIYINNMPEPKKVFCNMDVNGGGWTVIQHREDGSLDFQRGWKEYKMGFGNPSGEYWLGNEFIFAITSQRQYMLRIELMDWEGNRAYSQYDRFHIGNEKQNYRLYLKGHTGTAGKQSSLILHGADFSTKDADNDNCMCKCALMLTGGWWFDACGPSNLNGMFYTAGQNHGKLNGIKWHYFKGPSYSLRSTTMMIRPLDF
Description: (§1) The capability of CGEN-H2 [SEQ ID NO: 1], CGEN-H3 [SEQ ID NO: 2], CGEN-A8 [SEQ ID NO: 3], CGEN-H7 [SEQ ID NO: 4], CGEN-G4 [SEQ ID NO: 5], CGEN-G6 [SEQ ID NO: 6], CGEN-F9 [SEQ ID NO: 7], CGEN-F12 [SEQ ID NO: 8], CGEN-C6-30 [SEQ ID NO: 9], CGEN-All [SEQ ID NO: 10], and CGEN-G2 [SEQ ID NO: 11] to specifically bind to recombinant Ang1, Ang2, and Ang4 was investigated using the BIACORE technology, measuring protein-protein interaction and binding affinity (Wendler et al 2005, Anal Bioanal Chem, 381: 1056-1064). The technology is based on surface plasmon resonance (SPR), an optical phenomenon that enables detection of unlabeled interactants in real time. The SPR-based biosensors can be used in determination of active concentration, screening and characterization in terms of both affinity and kinetics.
(§2) Peptide-protein binding was analyzed using surface plasmon resonance. Analysis of the to interaction between CGEN-H2 [SEQ ID NO: 1], CGEN-H3 [SEQ ID NO: 2], CGEN-A8 [SEQ ID NO: 3], CGEN-H7 [SEQ ID NO: 4], CGEN-G4 [SEQ ID NO: 5], CGEN-G6 [SEQ ID NO: 6], CGEN-F9 [SEQ ID NO: 7], CGEN-F12 [SEQ ID NO: 8], CGEN-C6 [SEQ ID NO: 9], CGEN-A11 [SEQ ID NO: 10], and CGEN-G2 [SEQ ID NO: 11] peptides and recombinant human Ang1 carrier-free (R&D Systems, Cat#923-AN-025/CF, Lot#FHW1507031), human Ang2 carrier-free (R&D Systems, Cat#623-AN-025/CF, Lot#BNO0457121), and human Ang4 carrier-free (R&D Systems, Cat#964-AN-025/CF, Lot#ELM025121) was conducted using the BIAcore biosensor (Pharmacia Biosensor, Uppsala, Sweden). The recombinant Ang1, Ang2, and Ang4 were immobilized directly to a CM5 sensor chip. Solutions containing 10-50 μM of CGEN-H2 [SEQ ID NO: 1], CGEN-H3 [SEQ ID NO: 2], CGEN-A8 [SEQ ID NO: 3], CGEN-H7 [SEQ ID NO: 4], CGEN-G4 [SEQ ID NO: 5], CGEN-G6 [SEQ ID NO: 6], CGEN-F9 [SEQ ID NO: 7], CGEN-F12 [SEQ ID NO: 8], CGEN-C6 [SEQ ID NO: 9], CGEN-A11 [SEQ ID NO: 10], and CGEN-G2 [SEQ ID NO: 11] peptides were injected into the sample chamber of the BIACORE device at a rate of […] and the interaction was monitored using surface plasmon resonance.
(§3) Solutions containing different concentrations of CGEN-G6 [SEQ ID NO: 6], CGEN-F9 [SEQ ID NO: 7], CGEN-F12 [SEQ ID NO: 8], CGEN-A11 [SEQ ID NO: 10], and CGEN-G2 [SEQ ID NO: 11] peptides (as indicated in Table 2) were injected into the sample chamber of the BIACORE device at a rate of […] and the interaction was monitored using surface plasmon resonance. As a background, the solutions were also injected onto an empty flow cell with no immobilized ligand and the in binding levels achieved were subtracted. Data was analyzed using BIAevaluation software. The affinity constant of the interaction between CGEN-G6 [SEQ ID NO: 6], CGEN-F9 [SEQ ID NO: 7], CGEN-F12 [SEQ ID NO: 8], CGEN-C6 [SEQ ID NO: 9], CGEN-A11 [SEQ ID NO: 10], and CGEN-G2 [SEQ ID NO: 11] and Ang1, Ang2, or Ang4 was determined by direct kinetic analysis. The 1:1 Langmuir binding model was used to fit kinetic data.
(§4) Table 2 summarizes results of analysis of CGEN-G6 [SEQ ID NO: 6], CGEN-F9 [SEQ ID NO: 7], CGEN-F12 [SEQ ID NO: 8], CGEN-A11 [SEQ ID NO: 10], and CGEN-G2 [SEQ ID NO: 11] interaction with Ang1, Ang2, or Ang4. Kinetic measurements were done at the indicated concentration range, and they are presented as KD (M). CGEN-F12 [SEQ ID NO: 8] bound to Ang1 and Ang4 with high affinity. The specificity of this binding is not clear.

human Ang4 = molecular target: T2, human Ang4 (Homo sapiens, UniProt Q9Y264); assay: BIACORE (SPR) binding of peptides to immobilized recombinant Ang4; details: CM5 chip, 10-50 μM peptide
T2 construct: purchased R&D Systems 964-AN-025/CF
T2 sequence (Q9Y264 25-503): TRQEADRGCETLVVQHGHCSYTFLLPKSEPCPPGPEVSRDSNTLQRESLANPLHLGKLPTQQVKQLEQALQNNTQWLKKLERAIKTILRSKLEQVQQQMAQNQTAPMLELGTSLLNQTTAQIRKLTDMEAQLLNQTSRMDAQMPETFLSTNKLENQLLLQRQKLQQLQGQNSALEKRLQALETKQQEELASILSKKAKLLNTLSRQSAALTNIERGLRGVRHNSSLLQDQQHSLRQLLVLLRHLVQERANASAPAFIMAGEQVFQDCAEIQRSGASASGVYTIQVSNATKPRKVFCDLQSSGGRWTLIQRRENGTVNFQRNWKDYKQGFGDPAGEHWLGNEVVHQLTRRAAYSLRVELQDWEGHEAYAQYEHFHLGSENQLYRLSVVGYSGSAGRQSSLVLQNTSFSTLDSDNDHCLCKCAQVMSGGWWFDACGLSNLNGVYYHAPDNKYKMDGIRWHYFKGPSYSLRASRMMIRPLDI
Description: as §1, §2, §3, §4

| SMILES | binding to immobilized Ang1 (in words) (recombinant human Ang1) | binding to immobilized Ang4 (in words) (human Ang4) |
| --- | --- | --- |
| CC(=O)N[C@@H](CCC(=O)O)C(=O)N[C@H](C(=O)N[C@@H](Cc1ccccc1)C(=O)N[C@@H](CC(C)C)C(=O)N[C@@H](CO)C(=O)N[C@H](C(=O)N[C@@H](CC(N)=O)C(=O)N[C@@H](CCCCN)C(=O)N[C@@H](CC(C)C)C(=O)N[C@@H](CCC(=O)O)C(=O)N[C@@H](CC(N)=O)C(=O)N[C@@H](CCC(N)=O)C(N)=O)[C@@H](C)O)[C@@H](C)O [CGEN-A11, ETFLSTNKLENQ] (Ac-ETFLSTNKLENQ-NH2) | capable of binding | capable of binding |
| CSCC[C@H](NC(=O)[C@H](CC(C)C)NC(=O)[C@H](CC(=O)O)NC(C)=O)C(=O)N[C@@H](CCC(=O)O)C(=O)N[C@H](C(=O)N[C@H](C(=O)N[C@@H](CC(N)=O)C(=O)N[C@@H](CC(N)=O)C(=O)N[C@@H](CC(C)C)C(=O)N[C@@H](CC(C)C)C(=O)N[C@H](C(=O)N[C@@H](CCSC)C(=O)N[C@@H](CCSC)C(=O)N[C@@H](CO)C(=O)N[C@H](C(=O)N[C@@H](CO)C(=O)N[C@@H](CC(N)=O)C(=O)N[C@@H](CO)C(=O)N[C@@H](C)C(=O)N[C@@H](CCCCN)C(=O)N[C@@H](CC(=O)O)C(N)=O)[C@@H](C)O)[C@@H](C)O)C(C)C)[C@@H](C)O [CGEN-G6] (Ac-DLMETVNNLLTMMSTSNSAKD-NH2) | capable of binding | capable of binding |
| CC[C@H](C)[C@H](NC(=O)[C@H](C)NC(=O)[C@H](CCCNC(=N)N)NC(=O)[C@H](CCC(=O)O)NC(=O)[C@H](CC(C)C)NC(=O)[C@H](CCCCN)NC(=O)[C@H](CCCCN)NC(=O)[C@H](CC(C)C)NC(=O)[C@H](Cc1c[nH]c2ccccc12)NC(=O)[C@H](CCC(N)=O)NC(=O)[C@@H](NC(=O)[C@H](CC(N)=O)NC(=O)[C@H](CC(N)=O)NC(=O)[C@H](CCC(N)=O)NC(=O)[C@H](CC(C)C)NC(=O)[C@H](C)NC(=O)[C@H](CCC(N)=O)NC(=O)[C@H](CCC(=O)O)NC(=O)[C@H](CC(C)C)NC(=O)[C@H](CCC(N)=O)NC(=O)[C@H](CCCCN)NC(=O)[C@@H](NC(=O)[C@H](CCC(N)=O)NC(=O)[C@H](CCC(N)=O)NC(=O)[C@@H](NC(C)=O)[C@@H](C)O)C(C)C)[C@@H](C)O)C(=O)N[C@@H](CCCCN)C(=O)N[C@H](C(=O)N[C@H](C(=O)N[C@@H](CC(C)C)C(N)=O)[C@@H](C)CC)[C@@H](C)O [CGEN-G2] (Ac-TQQVKQLEQALQNNTQWLKKLERAIKTIL-NH2) | capable of binding | capable of binding |

From patent publication US9255132B2, “Angiopoietin derived peptides” (Compugen Ltd., priority 2008, dated 2016)
